The target of one experiment is T1, Adenosine receptor A3 (Homo sapiens, UniProt P0DMS8).
T1 sequence (P0DMS8 whole entry): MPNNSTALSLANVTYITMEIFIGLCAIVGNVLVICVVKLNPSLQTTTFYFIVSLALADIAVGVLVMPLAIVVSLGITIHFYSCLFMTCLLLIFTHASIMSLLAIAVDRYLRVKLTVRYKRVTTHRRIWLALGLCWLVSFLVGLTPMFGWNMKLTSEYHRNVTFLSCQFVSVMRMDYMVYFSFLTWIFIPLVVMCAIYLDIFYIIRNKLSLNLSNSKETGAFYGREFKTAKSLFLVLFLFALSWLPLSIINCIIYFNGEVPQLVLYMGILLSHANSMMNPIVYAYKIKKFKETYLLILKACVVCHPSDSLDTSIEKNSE
Kind of experiment: Displacement of specific [125I]AB-MECA binding at human adenosine A3 receptor expressed in CHO cells. Type of experiment: cell-based.

In a further experiment the target is T2, Adenosine receptor A1 (Bos taurus, UniProt P28190).
T2 sequence (P28190 whole entry): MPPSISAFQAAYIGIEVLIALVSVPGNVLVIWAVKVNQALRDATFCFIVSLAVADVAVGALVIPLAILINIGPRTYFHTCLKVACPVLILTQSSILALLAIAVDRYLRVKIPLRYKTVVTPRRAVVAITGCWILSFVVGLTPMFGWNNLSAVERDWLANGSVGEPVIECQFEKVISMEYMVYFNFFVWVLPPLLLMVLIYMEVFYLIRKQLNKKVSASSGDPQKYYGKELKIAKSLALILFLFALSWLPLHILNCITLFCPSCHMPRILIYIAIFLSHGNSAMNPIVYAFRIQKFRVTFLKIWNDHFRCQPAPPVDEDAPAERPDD
Kind of experiment: Displacement of specific [3H]CHA binding at adenosine A1 receptor in bovine brain membranes. Type of experiment: cell membranes.

Experiment [1] deals with Adenosine receptor A2a (Bos taurus). Kind of experiment: Inhibition of specific [3H]-CGS- 21680 binding at Adenosine A2A receptor in bovine striatal membranes at 20 uM. The note with it: Striatum, Membrane.
Experiment [2] concerns the target Adenosine receptor A2a (Bos taurus). Kind of experiment: Displacement of specific [3H]-CGS- 21680 binding at Adenosine A2A receptor in bovine striatal membranes.
Experiment [3] concerns the target T3, Adenosine receptor A1 (Bos taurus) (UniProt P28190).
T3 sequence (whole entry): T2 sequence (P28190 whole entry)
Kind of experiment: Inhibition of [3H]CHA binding at Adenosine A1 receptor in bovine brain membranes at 20 uM. Type of experiment: cell membranes.

For experiment [4], the target named is T4, Adenosine receptor A3 (Homo sapiens) (UniProt P0DMS8).
T4 sequence (whole entry): T1 sequence (P0DMS8 whole entry)
Kind of experiment: Inhibition of [125I]AB-MECA binding to human Adenosine A3 receptor expressed in CHO cells at 1 uM. The experiment is classed as cell-based.

Results on 38 compounds are retold here after ChEMBL document CHEMBL1133616, “Synthesis and structure-activity relationships of a new set of 2-arylpyrazolo[3,4-c]quinoline derivatives as adenosine receptor antagonists” (J Med Chem, 2000).

As for `CCCn1c(=O)c2nn(-c3ccccc3)cc2c2ccccc21`, the values for the Ki on Adenosine receptor A3 and on Adenosine receptor A1 were 68.4 nM and 950 nM, respectively.

`O=C(NCc1ccccc1)Nc1nc2ccccc2c2cn(-c3ccccc3)nc12`: the Ki (as a rule, the dissociation constant of the complex between target and ligand, obtained from inhibition or displacement) on Adenosine receptor A3 came out at 8.3 nM; at Adenosine receptor A1, 186 nM. Also, the inhibition (commonly the relative decrease from the control value, in per cent) in experiment [1] is 5%.

Consider `Fc1cccc(-n2cc3c(n2)c(NC2CCCCC2)nc2ccccc23)c1`, for which the results for the Ki on Adenosine receptor A3 and on Adenosine receptor A1 were 155 nM and 54.7 nM, respectively.

With `Nc1nc2ccc(Cl)cc2c2cn(-c3ccccc3)nc12`, the Ki on Adenosine receptor A3 worked out at 309 nM; at Adenosine receptor A1 it was 86.1 nM; in experiment [2], 5750 nM.

As for `Nc1nc2ccccc2c2cn(-c3cccc(F)c3)nc12`, the Ki amounted to 788 nM at Adenosine receptor A3 and 110 nM at Adenosine receptor A1.

On to `c1ccc(-n2cc3c(n2)c(NC2CCCC2)nc2ccccc23)cc1`, for which the results for the Ki (on Adenosine receptor A3; at Adenosine receptor A1; in experiment [2]) were 60.5 nM, 3.2 nM and 849 nM, respectively.

`Cn1c(=O)c2nn(-c3ccccc3)cc2c2ccccc21`: the figures for the Ki on Adenosine receptor A3 and on Adenosine receptor A1 were 118 nM and 1230 nM, respectively.

`O=c1[nH]c2ccccc2c2cn(-c3ccccc3)nc12` showed a Ki on Adenosine receptor A3 of 30.8 nM.

As for `Cc1ccccc1-n1cc2c(n1)c(=O)[nH]c1ccccc12`, the Ki on Adenosine receptor A3 was 79.2 nM; on Adenosine receptor A1, 3200 nM.

As for `Nc1nc2ccccc2c2cn(-c3ccccc3)nc12`, the Ki is 551 nM at Adenosine receptor A3 and 69.2 nM at Adenosine receptor A1.

Take `Cc1cccc(-n2cc3c(n2)c(=O)[nH]c2ccccc23)c1`: the Ki is 5 nM on Adenosine receptor A3 and 830 nM on Adenosine receptor A1. Also, the inhibition in experiment [1] turned out to be 17%.

Take `c1ccc(CCNc2nc3ccccc3c3cn(-c4ccccc4)nc23)cc1`: the Ki was 32.9 nM on Adenosine receptor A3 and 60.1 nM on Adenosine receptor A1.

On to `Oc1nc2ccc(Cl)cc2c2cn(-c3ccccc3)nc12`, for which the inhibition in experiment [1] turned out to be 52%.

In turn, `Cc1ccccc1-n1cc2c(n1)c(O)nc1ccccc12` displayed an inhibition in experiment [1] of 0%.

Take `Clc1ccc(-n2cc3c(n2)c(NC2CCCCC2)nc2ccccc23)cc1`: the Ki at Adenosine receptor A3 stood at 56.5 nM; on Adenosine receptor A1 it was 478 nM. In experiment [1], this compound came in with an inhibition of 8%.

Take `COc1ccc(-n2cc3c(n2)c(=O)[nH]c2ccccc23)cc1`: the figures for the Ki at Adenosine receptor A3 and on Adenosine receptor A1 were 3.2 nM and 1080 nM, respectively. Moreover, the inhibition in experiment [1] came out at 18%.

`Cc1ccc(-n2cc3c(n2)c(=O)[nH]c2ccccc23)cc1`: the Ki at Adenosine receptor A3 is 3.2 nM; on Adenosine receptor A1, 3900 nM.

Regarding `Cc1cccc(-n2cc3c(n2)c(NC2CCCC2)nc2ccccc23)c1`, the values for the Ki at Adenosine receptor A3 and on Adenosine receptor A1 were 22.3 nM and 40.7 nM, respectively.

As to `O=C(Nc1ccccc1)Nc1nc2ccccc2c2cn(-c3ccccc3)nc12`, the Ki on Adenosine receptor A3 was 108 nM; at Adenosine receptor A1, 1500 nM. In experiment [1], this compound yielded an inhibition of 32%.

`Cc1ccccc1-n1cc2c(n1)c(N)nc1ccccc12`: the figures for the Ki (on Adenosine receptor A3; at Adenosine receptor A1; in experiment [2]) were 3600 nM, 520 nM and 1600 nM, respectively.

Consider `Cc1cccc(-n2cc3c(n2)c(N)nc2ccccc23)c1`, for which the figures for the Ki (on Adenosine receptor A3; on Adenosine receptor A1; in experiment [2]) were 99.3 nM, 129 nM and 3750 nM, respectively.

For the compound `CC(=O)Nc1nc2ccccc2c2cn(-c3ccccc3)nc12`, the Ki at Adenosine receptor A3 stood at 48.2 nM; at Adenosine receptor A1, 75.9 nM.

Regarding `Cc1cccc(-n2cc3c(n2)c(NC2CCCCC2)nc2ccccc23)c1`, the Ki at Adenosine receptor A3 worked out at 44.1 nM; at Adenosine receptor A1 it was 22.2 nM; in experiment [2] it was 11400 nM.

`O=C(Cc1ccccc1)Nc1nc2ccccc2c2cn(-c3ccccc3)nc12`: the Ki on Adenosine receptor A3 worked out at 9.9 nM; at Adenosine receptor A1 it was 107 nM.

Regarding `Cc1ccc(-n2cc3c(n2)c(NC2CCCCC2)nc2ccccc23)cc1`, the Ki amounted to 115 nM on Adenosine receptor A3 and 71.9 nM on Adenosine receptor A1.

As for `O=C(Nc1nc2ccccc2c2cn(-c3ccccc3)nc12)c1ccccc1`, the affinity on Adenosine receptor A3 corresponds to a Ki of 2.1 nM. Moreover, in experiment [3], the inhibition was 42%.

In the case of `Cc1ccc(-n2cc3c(n2)c(N)nc2ccccc23)cc1`, the Ki at Adenosine receptor A3 is 188 nM; at Adenosine receptor A1, 215 nM.

For the compound `Oc1nc2ccccc2c2cn(-c3cccc(F)c3)nc12`, the Ki came to 45.3 nM at Adenosine receptor A3 and 583 nM at Adenosine receptor A1. The compound further came in with an inhibition in experiment [1] of 0%.

Regarding `O=c1[nH]c2ccccc2c2cn(-c3ccc(Cl)cc3)nc12`, the Ki is 2.9 nM at Adenosine receptor A3 and 464 nM on Adenosine receptor A1.

Regarding `Fc1cccc(-n2cc3c(n2)c(NC2CCCC2)nc2ccccc23)c1`, the Ki on Adenosine receptor A1 turned out to be 9.3 nM; in experiment [2], 2210 nM. Also, the inhibition in experiment [4] was 34%.

As for `c1ccc(CNc2nc3ccccc3c3cn(-c4ccccc4)nc23)cc1`, the inhibitory constant (Ki) on Adenosine receptor A3 came to 35.8 nM; at Adenosine receptor A1 it was 132 nM; in experiment [2] it was 5400 nM.

`Clc1ccc2nc(NC3CCCCC3)c3nn(-c4ccccc4)cc3c2c1`: the Ki turned out to be 2130 nM at Adenosine receptor A3, 27.1 nM on Adenosine receptor A1 and 4140 nM in experiment [2].

Regarding `Nc1nc2ccccc2c2cn(-c3ccc(Cl)cc3)nc12`, at Adenosine receptor A3, the Ki was determined as 150 nM.

Turning to `COc1ccc(-n2cc3c(n2)c(N)nc2ccccc23)cc1`, the Ki on Adenosine receptor A3 amounted to 90.2 nM; at Adenosine receptor A1, 238 nM.

`Oc1nc2ccccc2c2cn(-c3ccc(Cl)cc3)nc12`: the inhibition in experiment [1] worked out at 35%.

As to `c1ccc(-n2cc3c(n2)c(NC2CCCCC2)nc2ccccc23)cc1`, the Ki on Adenosine receptor A3 was 707 nM; at Adenosine receptor A1, 8.6 nM.

Consider `O=c1[nH]c2ccc(Cl)cc2c2cn(-c3ccccc3)nc12`, for which the Ki at Adenosine receptor A3 is 44.1 nM; on Adenosine receptor A1, 284 nM.

For `Cc1ccccc1-n1cc2c(n1)c(NC1CCCC1)nc1ccccc12`, the Ki at Adenosine receptor A3 was 152 nM; at Adenosine receptor A1, 148 nM.
